Experiments:
Rhizochrysis = assay: Sewage treatment test 1, Rhizochrysis; conditions: six days after treatment
Experimental: Two experiments were performed on sewage to further illustrate the utility of these algaecides. In the first experiment, sewage containing mostly green algae was treated with relatively high concentrations of potassium ricinoleate.

Tribonema = assay: Selective effect on algae in test tubes (Table V), Tribonema; assay type: cell-based; conditions: for cells/ml: average of 3 samples
Experimental: (§1) Another laboratory experiment was run to further substantiate the selective effect of one of the algaecides, potassium ricinoleate. Two species of blue-green algae, Lyngbya and Cylindrospermum, and three species of green algae, Chlorella, Haematococcus and Stigeoclonium and Tribonema, a yellow-green alga of the division Chrysophycophyta, were treated as follows: Twenty ml test tubes of sterile BBM culture solution were innoculated with each alga. All species of algae were evaluated with three groups, control, 2.5 ppm algaecide and 7.5 ppm algaecide. Each group was run with triplicate samples.
(§2) Controls were counted 6 days after innoculation, algaecide was added to the treatment groups seven days after innoculation and all test tubes were counted thirteen days after innoculation. The results are shown in Table V. After seven days, there was a 31% reduction in the Lyngbya cultures at 2.5 ppm algaecide and a 40% reduction at 7.5 ppm. After seven days, there was a 60% reduction in Cylindrospermum cultures at 2.5 ppm algaecide and a 72% reduction at 7.5 ppm. […] After thirteen days, there was a 55% reduction in numbers at both 2.5 ppm and 7.5 ppm. After twenty days there was a 27% reduction at both concentrations. […] They are, like blue-green algae, often associated with taste and odor problems.

green algae = assay: Field Experiment II, catfish pond, green algae; assay type: in vivo; conditions: 2 ppm
[1] = Field Experiment I, total organism dry weight; assay type: in vivo; conditions: 10 ppm
Experimental: (§3) 1, 1980, to Mar. 19, 1981.
(§4) On July 30, 1980, most ponds had numbers of blue-green algae exceeding 2×10^6 cells/liter. These algae were predominantly Oscillatoria,Microcystis and Anacystis with smaller numbers of Nostoc, Anabaena and Lyngbya. The experimental pond had 1.2×10^6 cells/liter composed mainly of Microcystis sp. Large numbers of copepods and rotifers were present. On July 30, the pond was treated with 10 ppm potassium ricinoleate by distributing a 30% aqueous solution evenly through the water column by pump from a small boat. […] This is further substantiated by the dry weights and chlorophyll a levels.

Fish (adult catfish) = assay: Field Experiment II, taste and odor of fish; assay type: in vivo; conditions: for Fish Odor / Fish Taste: 2 ppm on 5/26/81
blue-green algae [2] = assay: Field Experiment III, pond, blue-green algae; assay type: in vivo, blue-green algae (Oscillatoria and Microcystis); conditions: 2 ppm on 6/9/81
Experimental: (§5) In Field Experiment III, a small two acre pond was monitored for a complete year for plankton organisms as before. Oscillatoria and Microcystis were usually the prevalent blue-green algae. On 6/9/81 the pond was experiencing a bloom consisting completely of Oscillatoria. Channel catfish from the ponds had the characteristic earthy, musty taste and odor of 4 and 4 respectively on the 0 to 5 scale. The pond was treated on this date with 2 ppm potassium ricinoleate, one of the selective algaecides, as before.

zooplankton = assay: Field Experiment III, pond, zooplankton; assay type: in vivo; conditions: 2 ppm on 6/9/81
Experimental: as §5

catfish fingerlings = assay: Toxicity to catfish fingerlings in aquaria; assay type: in vivo
Experimental: For any algaecide to be useful in aquaculture, it must be without harmful effects on fish populations in ponds to be treated. Experiments to determine the effects of potassium ricinoleate on fish were performed in two 250 gallon aquaria using various concentrations of the algaecide. Batches of 25 live 5 in. catfish fingerlings were treated with 5, 10, 15, 20, 30, 35 and 100 ppm algaecide and observed for 48 hours.

[3] = Field Experiment II, taste and odor of water; assay type: in vivo; conditions: 2 ppm on 5/26/81
Lyngbya = assay: Selective effect on algae in test tubes (Table V), Lyngbya; assay type: cell-based; conditions: for cells/ml: 13 days after innoculation, average of 3 samples
Experimental: as §1, §2

bluegill fingerlings = assay: Toxicity to bluegill fingerlings; assay type: in vivo; conditions: 5, 10, 15, 20, 30 and 35 ppm
Experimental: An additional experiment was conducted on live bluegill fingerlings at 5, 10, 15, 20, 30 and 35 ppm of the algaecide.

blue-green algae [4] = assay: Field Experiment I, catfish pond, blue-green algae; assay type: in vivo, blue-green algae (mainly Microcystis sp.); conditions: 10 ppm
Experimental: as §3, §4

Channel catfish = assay: Field Experiment III, taste and odor of channel catfish; assay type: in vivo; conditions: 2 ppm on 6/9/81; June 22
Experimental: as §5

Cylindrospermum = assay: Selective effect on algae in test tubes (Table V), Cylindrospermum; assay type: cell-based; conditions: for cells/ml: 13 days after innoculation, average of 3 samples
Experimental: as §1, §2

[5] = 7/31 post-treatment (treated July 30, 1980)
[6] = 11/21 post-treatment (normal winter reduction)
[7] = scale 0 to 5 (5 worst, 0 undetectable), 6/1/81
[8] = 168 h, read-out: reduction in cultures

CCCCCC[C@@H](O)C/C=C\CCCCCCCC(=O)[O-].[K+]
presence of Rhizochrysis (Rhizochrysis): completely absent
cells/ml (Tribonema; 2.5 ppm, 13 days after innoculation): 5885 cells/ml
cells/ml (Tribonema; 2.5 ppm, 20 days after innoculation): 10510 cells/ml
cells/ml (Tribonema; 7.5 ppm, 13 days after innoculation): 5335 cells/ml
cells/ml (Tribonema; 7.5 ppm, 20 days after innoculation): 10295 cells/ml
reduction in numbers (Tribonema; both 2.5 ppm and 7.5 ppm, after thirteen days): 55%
reduction in numbers (Tribonema; both concentrations (2.5 and 7.5 ppm), after twenty days): 27%
Cells/liter green algae (green algae; 5/26/81 B post-treat, 4 p.m., Deep, prevalent Mic): 3.2 × 10^5 Cells/liter
Cells/liter green algae (green algae; 5/26/81 C post-treat, 4 p.m., Shallow, prevalent Ped): 2.0 × 10^5 Cells/liter
Cells/liter green algae (green algae; 5/27/81 D, 9:40 p.m., Deep, prevalent Ped): 2.6 × 10^5 Cells/liter
Cells/liter green algae (green algae; 5/27/81 E, 9:40 p.m., Shallow, prevalent Ped): 1.09 × 10^5 Cells/liter
Cells/liter green algae (green algae; 5/28/81 F, 7 a.m., prevalent Ped): 1.3 × 10^5 Cells/liter
Cells/liter green algae (green algae; 5/28/81 G, 11 a.m., prevalent Ped): 1.1 × 10^5 Cells/liter
green algae after treatment (green algae; through June, 1981): remained unchanged
Dry Wgts [1, 5]: 2.19 Gm/Liter
Dry Wgts ([1]; 8/1 post-treatment): 4.45 Gm/Liter
Dry Wgts ([1]; 8/6 post-treatment): 17.90 Gm/Liter
Dry Wgts ([1]; 8/19 post-treatment): 5.34 Gm/Liter
Dry Wgts ([1]; 9/6 post-treatment): 20.69 Gm/Liter
Dry Wgts ([1]; 9/23 post-treatment): 9.06 Gm/Liter
Dry Wgts [1, 6]: 1.03 Gm/Liter
Dry Wgts ([1]; 12/14 post-treatment): 4.84 Gm/Liter
Fish Odor (Fish (adult catfish); [7]): 2
Fish Taste (Fish (adult catfish); [7]): 3
Fish Odor (Fish (adult catfish); scale 0 to 5, 6/5/81): 1
Fish Taste (Fish (adult catfish); scale 0 to 5, 6/5/81): 2
Fish Odor (Fish (adult catfish); scale 0 to 5, 6/12/81): 1
Fish Taste (Fish (adult catfish); scale 0 to 5, 6/12/81): 1
Fish Odor (Fish (adult catfish); scale 0 to 5, 6/15/81): 0
Fish Taste (Fish (adult catfish); scale 0 to 5, 6/15/81): 0
earthy musty taste and odor of fish (Fish (adult catfish); 2 ppm, over a three week period): eliminated
Cells/liter bluegreen algae (blue-green algae [2]; 6/10/81, prevalent Osc, Mic): 2.8 × 10^6 Cells/liter
Cells/liter bluegreen algae (blue-green algae [2]; 6/12/81, prevalent Osc): 1.3 × 10^6 Cells/liter
Cells/liter bluegreen algae (blue-green algae [2]; 6/22/81, prevalent Ped): 1.2 × 10^4 Cells/liter
predominant alga after treatment (blue-green algae [2]; June 22): Pediastrum with isolated fragments of Oscillatoria filaments
Zoo #'s/liter (zooplankton; 6/10/81): 2251 #'s/liter
Zoo #'s/liter (zooplankton; 6/12/81): 4948 #'s/liter
Zoo #'s/liter (zooplankton; 6/22/81): 4541 #'s/liter
fish survival (catfish fingerlings; 35 ppm and lower, observed for 48 hours): All fish survived
fish mortality (catfish fingerlings; 100 ppm, at 12 hours): All fish had died
Water Odor [3, 7]: 0
Water Taste [3, 7]: 1
Water Odor ([3]; scale 0 to 5, 6/5/81): 0
Water Taste ([3]; scale 0 to 5, 6/5/81): 1
Water Odor ([3]; scale 0 to 5, 6/12/81): 0
Water Taste ([3]; scale 0 to 5, 6/12/81): 0
Water Odor ([3]; scale 0 to 5, 6/15/81): 0
Water Taste ([3]; scale 0 to 5, 6/15/81): 0
cells/ml (Lyngbya; 2.5 ppm): 2340 cells/ml
cells/ml (Lyngbya; 7.5 ppm): 2010 cells/ml
inhibition of growth at 2.5 ppm (Lyngbya; [8]): 31%
inhibition of growth at 7.5 ppm (Lyngbya; [8]): 40%
fish survival (bluegill fingerlings): All bluegills survived
Cells/Liter of bluegreen algae (blue-green algae [4]; [5]): 3.2 × 10^5 Cells/Liter
Cells/Liter of bluegreen algae (blue-green algae [4]; 8/1 post-treatment): 1.8 × 10^5 Cells/Liter
Cells/Liter of bluegreen algae (blue-green algae [4]; 8/6 post-treatment): 1.0 × 10^5 Cells/Liter
Cells/Liter of bluegreen algae (blue-green algae [4]; 8/19 post-treatment): 5.4 × 10^5 Cells/Liter
Cells/Liter of bluegreen algae (blue-green algae [4]; 9/6 post-treatment): 3.8 × 10^5 Cells/Liter
Cells/Liter of bluegreen algae (blue-green algae [4]; 9/23 post-treatment): 1.9 × 10^6 Cells/Liter
Cells/Liter of bluegreen algae (blue-green algae [4]; [6]): 0 Cells/Liter
Cells/Liter of bluegreen algae (blue-green algae [4]; 12/14 post-treatment): 3.0 × 10^4 Cells/Liter
blue-green algae killed (blue-green algae [4]; seven days after treatment): 93%
earthy, musty taste and odor of sample fish (Channel catfish): lost all of the earthy, musty taste and odor
cells/ml (Cylindrospermum; 2.5 ppm): 2500 cells/ml
cells/ml (Cylindrospermum; 7.5 ppm): 1770 cells/ml
inhibition of growth at 2.5 ppm (Cylindrospermum; [8]): 60%
inhibition of growth at 7.5 ppm (Cylindrospermum; [8]): 72%

Reference: patent publication US4398937A, “Selective algaecides for control of cyanochloronta” (The University of Southern Mississippi, priority 1981, dated 1983)
